One data set deals with MT-4 cells. In words: cytotoxicity: viability of mock-infected MT-4 host cells (MTT method). The format is cell-based. Details: unit not given here. The conditions noted are these: mock-infected MT-4 cells, marker c (undefined, shared with AZT^c). As to the method:
(§1) The anti-HIV assays were based on the inhibition of the virus-induced cytopathic effect in MT-4 cells as a described method in J. Med. Chem, 34, 357, 1991. Briefly, MT-4 cells were suspended in culture medium at 2.5×10^5 cells/ml and infected with 1000 CCID50 (50% cell culture infective dose) of HIV. Immediately, after virus infection, 100 μl of the cell suspension was brought into each well of a flat-bottomedmicrotitray containing various concentrations of the test compounds. After a 4 or 5 days incubation at 37° C., the number of viable cells was determined by the 3-(4,5-dimethylthiazol-2-yl)-2,5-diphenyltetrazolium bromide (MTT) method, as disclosed in J. Virol. Methods, 20, 309, 1988. The cytotoxicity of the compounds of the present invention was assessed in parallel with their antiviral activity. It was based on the viability of mock-infected host cells as determined by the MTT methods.
(In general: Tetrazolium assays rely on reduction of a dye to a coloured formazan, in cell work by metabolically active cells.)

Another data set has as its system HIV. Type of data set: cell-based. The note with it: ratio CD50/ED50; marker c (undefined, shared with AZT^c). As to the method:
as §1

Compound `CCc1c(Sc2ccccc2)n(CC2CC2(CO)CO)c(=O)[nH]c1=O` (stereo not shown) [Example 48, 1-[2-Bis(hydroxymethyl)cyclopropane-1-yl]methyl-5-ethyl-6-phenylthio-2,4-pyrimidinedione] yielded a CD50 in the data set on MT-4 cells of 96.95. For the same compound, in the data set on HIV, the S.I. was found to be 923.

Compound `CCc1c(Sc2cc(C)cc(C)c2)n(CC2CC2(CO)CO)c(=O)[nH]c1=O` (stereo not shown) [Example 49, 1-[2-Bis(hydroxymethyl)cyclopropane-1-yl]methyl-5-ethyl-(3,5-dimethylphenylthio)-2,4-pyrimidinedione] yielded a CD50 in the data set with MT-4 cells of 21.56. The S.I. in the data set with HIV is 18,271.

Turning to `CCc1c(Oc2cc(C)cc(C)c2)n(CC2CC2(CO)CO)c(=O)[nH]c1=O` (stereo not shown) [Example 50, 1-[2-Bis(hydroxymethyl)cyclopropane-1-yl]methyl-5-ethyl-6-(3,5-dimethylphenoxy)-2,4-pyrimidinedione], the CD50 in the data set on MT-4 cells is 111.79. The S.I. in the data set on HIV is given as 7,763.

In the case of `CCc1c(C(=O)c2cc(C)cc(C)c2)n(CC2CC2(CO)CO)c(=O)[nH]c1=O` (stereo not shown) [Example 51, 1-[2-Bis(hydroxymethyl)cyclopropane-1-yl]methyl-5-ethyl-6-(3,5-dimethylbenzoyl)-2,4-pyrimidinedione], the CD50 with MT-4 cells was 128.95. The S.I. in the data set with HIV is reported as 12,165.

`CC(C)c1c(Sc2ccccc2)n(CC2CC2(CO)CO)c(=O)[nH]c1=O` (stereo not shown) [Example 52, 1-[2-Bis(hydroxymethyl)cyclopropane-1-yl]methyl-5-isopropyl-6-phenylthio-2,4-pyrimidinedione] displayed a CD50 with MT-4 cells of 104.12. For the same compound, the S.I. in the data set with HIV was 1,496.

Compound `Cc1cc(C)cc(Sc2c(C(C)C)c(=O)[nH]c(=O)n2CC2CC2(CO)CO)c1` (stereo not shown) [Example 53, 1-[2-Bis(hydroxymethyl)cyclopropane-1-yl]methyl-5-isopropyl-6-(3,5-dimethylphenylthio)-2,4-pyrimidinedione] displayed a CD50 in the data set with MT-4 cells of 13.39. The S.I. in the data set with HIV is 7,199.

In the data set with MT-4 cells, `Cc1cc(C)cc(Oc2c(C(C)C)c(=O)[nH]c(=O)n2CC2CC2(CO)CO)c1` (stereo not shown) [Example 54, 1-[2-Bis(hydroxymethyl)cyclopropane-1-yl]methyl-5-isopropyl-6-(3,5-dimethylphenoxy)-2,4-pyrimidinedione] had a CD50 of 7.69. In addition, the S.I. in the data set on HIV is reported as 3,004.

In the case of `Cc1cc(C)cc(C(=O)c2c(C(C)C)c(=O)[nH]c(=O)n2CC2CC2(CO)CO)c1` (stereo not shown) [Example 55, 1-[2-Bis(hydroxymethyl)cyclopropane-1-yl]methyl-5-isopropyl-6-(3,5-dimethylbenzoyl)-2,4-pyrimidinedione], the CD50 in the data set on MT-4 cells is 131.71. Further, the S.I. in the data set on HIV is listed as 21,806.
